Read-outs that look alike come from different tables or passages of the source.
Columns and labels:
Assay in all cases: MIC of compounds alone and combined with antibacterials, broth microdilution (CLSI)
Format in all cases: cell-based
[1] = tested on: Morganella morganii (MMO) isolates; conditions: for MIC: Morganella morganii
Outline: (§1)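 First, log-phase suspensions are brought to a final 5·10^5 CFU/mL in cation-adjusted Mueller-Hinton broth. Then plates with compound, antibacterial, or both incubate 16-20 h at 35° C under ambient air. Finally, visual inspection gives the lowest growth-preventing concentration for each agent.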

[2] = tested on: Klebsiella oxytoca (KOX) isolates; conditions: for MIC: Klebsiella oxytoca
Outline: as §1

[3] = tested on: Klebsiella pneumoniae (KPN) isolates
Outline: as §1

C=CC1=C(C(=O)O)N2C(=O)[C@@H](NC(=O)/C(=N\OCC(=O)O)c3csc(N)n3)[C@H]2SC1 [FIX, Cefixime]
0.125 µg/mL: MIC ATB in combination ([3]; KPN 110376, AF1 @ 4 μg/mL) | MIC ATB in combination ([3]; KPN 110376, AF1 @ 8 μg/mL)
16 µg/mL: MIC ([1]; strain MMO UFR247 (DHA-1), ATB alone, read-out: MIC) | MIC ([2]; strain KOX UFR173 (OXY2-2), ATB alone, read-out: MIC)
32 µg/mL: MIC ([1]; strain MMO 200321 (TEM-1, CTX-M-15, OXA-1), CLA @ 4 μg/ml+ ATB, read-out: MIC) | MIC ([1]; strain MMO UFR144 (TEM-1, CTX-M-15), CLA @ 4 μg/ml+ ATB, read-out: MIC) | MIC ([1]; strain MMO UFR241 (TEM-1, CTX-M-15), CLA @ 4 μg/ml+ ATB, read-out: MIC) | MIC ([1]; strain MMO UFR243 (DHA-1), CLA @ 4 μg/ml+ ATB, read-out: MIC) | MIC ([1]; strain MMO UFR245 (DHA-1), ATB alone, read-out: MIC) | MIC ([1]; strain MMO UFR246 (DHA-1), ATB alone, read-out: MIC) | MIC ([1]; strain MMO UFR247 (DHA-1), CLA @ 4 μg/ml+ ATB, read-out: MIC)
1 µg/mL: MIC ATB in combination ([1]; MMO UFR246, AF1 @ 8 μg/mL) | MIC ([1]; strain MMO UFR240 (CTX-M-9), ATB alone, read-out: MIC) | MIC ATB in combination ([2]; KOX UFR21, AF1 @ 8 μg/mL)
> 128 µg/mL: MIC ([1]; strain MMO 200321 (TEM-1, CTX-M-15, OXA-1), ATB alone) | MIC ([1]; strain MMO UFR144 (TEM-1, CTX-M-15), ATB alone) | MIC ([1]; strain MMO UFR241 (TEM-1, CTX-M-15), ATB alone) | MIC ([2]; strain KOX UFR21 (TEM-1, CTX-M-15, OXA-48), ATB alone) | MIC ([2]; strain KOX UFR21 (TEM-1, CTX-M-15, OXA-48), CLA @ 4 μg/ml+ ATB) | MIC ([2]; strain KOX UFR224 (CTX-M-15, OXA-48), ATB alone)
4 µg/mL: MIC ATB in combination ([1]; MMO 200321, AF1 @ 4 μg/mL) | MIC ATB in combination ([1]; MMO 200321, AF1 @ 8 μg/mL) | MIC ATB in combination ([1]; MMO UFR242, AF1 @ 4 μg/mL) | MIC ([1]; strain MMO UFR244 (DHA-1), ATB alone, read-out: MIC) | MIC ([2]; strain KOX UFR173 (OXY2-2), CLA @ 4 μg/ml+ ATB, read-out: MIC) | MIC ATB in combination ([3]; KPN 140513, AF1 @ 4 μg/mL)
0.5 µg/mL: MIC ATB in combination ([1]; MMO UFR243, AF1 @ 4 μg/mL) | MIC ATB in combination ([1]; MMO UFR247, AF1 @ 4 μg/mL) | MIC ATB in combination ([3]; KPN 140513, AF1 @ 8 μg/mL) | MIC ATB in combination ([3]; KPN 190128, AF1 @ 4 μg/mL) | MIC ATB in combination ([3]; KPN 190270, AF1 @ 4 μg/mL)
<=0.25 μg/mL: MIC ATB in combination ([1]; MMO UFR240, AF1 @ 4 μg/mL) | MIC ATB in combination ([1]; MMO UFR240, AF1 @ 8 μg/mL) | MIC ATB in combination ([1]; MMO UFR241, AF1 @ 8 μg/mL) | MIC ATB in combination ([1]; MMO UFR243, AF1 @ 8 μg/mL) | MIC ATB in combination ([1]; MMO UFR244, AF1 @ 4 μg/mL) | MIC ATB in combination ([1]; MMO UFR244, AF1 @ 8 μg/mL) | MIC ATB in combination ([1]; MMO UFR245, AF1 @ 8 μg/mL) | MIC ATB in combination ([2]; KOX UFR173, AF1 @ 4 μg/mL) | MIC ATB in combination ([2]; KOX UFR173, AF1 @ 8 μg/mL) | MIC ATB in combination ([2]; KOX UFR223, AF1 @ 4 μg/mL) | MIC ATB in combination ([2]; KOX UFR223, AF1 @ 8 μg/mL) | MIC ATB in combination ([2]; KOX UFR224, AF1 @ 4 μg/mL) | MIC ATB in combination ([2]; KOX UFR224, AF1 @ 8 μg/mL) | MIC ATB in combination ([3]; KPN 6299, AF1 @ 4 μg/mL) | MIC ATB in combination ([3]; KPN 6299, AF1 @ 8 μg/mL) | MIC ATB in combination ([3]; KPN 131119, AF1 @ 4 μg/mL) | MIC ATB in combination ([3]; KPN 131119, AF1 @ 8 μg/mL) | MIC ATB in combination ([3]; KPN 160143, AF1 @ 4 μg/mL) | MIC ATB in combination ([3]; KPN 160143, AF1 @ 8 μg/mL) | MIC ATB in combination ([3]; KPN 190128, AF1 @ 8 μg/mL)
>128 µg/mL: MIC ATB in combination [3]
≤ 0.125 µg/mL: MIC ([2]; strain KOX UFR223 (SHV-11, OXA-48), ATB alone, read-out: MIC)
64 µg/mL: MIC ([1]; strain MMO UFR242 (TEM-52), CLA @ 4 μg/ml+ ATB, read-out: MIC) | MIC ([1]; strain MMO UFR245 (DHA-1), CLA @ 4 μg/ml+ ATB, read-out: MIC) | MIC ([1]; strain MMO UFR246 (DHA-1), CLA @ 4 μg/ml+ ATB, read-out: MIC)
2 µg/mL: MIC ATB in combination ([1]; MMO UFR144, AF1 @ 4 μg/mL) | MIC ATB in combination ([1]; MMO UFR144, AF1 @ 8 μg/mL) | MIC ATB in combination ([1]; MMO UFR241, AF1 @ 4 μg/mL) | MIC ATB in combination ([1]; MMO UFR242, AF1 @ 8 μg/mL) | MIC ATB in combination ([1]; MMO UFR245, AF1 @ 4 μg/mL) | MIC ATB in combination ([1]; MMO UFR246, AF1 @ 4 μg/mL) | MIC ATB in combination ([2]; KOX UFR21, AF1 @ 4 μg/mL)
0.25 µg/mL: MIC ATB in combination ([1]; MMO UFR247, AF1 @ 8 μg/mL)
1020 µg/mL: MIC ([1]; strain MMO UFR242 (TEM-52), ATB alone, read-out: MIC)
8 µg/mL: MIC ([1]; strain MMO UFR240 (CTX-M-9), CLA @ 4 μg/ml+ ATB, read-out: MIC) | MIC ([1]; strain MMO UFR243 (DHA-1), ATB alone, read-out: MIC) | MIC ([1]; strain MMO UFR244 (DHA-1), CLA @ 4 μg/ml+ ATB, read-out: MIC) | MIC ([2]; strain KOX UFR224 (CTX-M-15, OXA-48), CLA @ 4 μg/ml+ ATB, read-out: MIC)
≤ 0.25 µg/mL: MIC ([2]; strain KOX UFR223 (SHV-11, OXA-48), CLA @ 4 μg/ml+ ATB, read-out: MIC)
